Test results reported in article PMC8253220, “Molecular design, synthesis and in vitro biological evaluation of thienopyrimidine–hydroxamic acids as chimeric kinase HDAC inhibitors: a challenging approach to combat cancer” (Journal of Enzyme Inhibition and Medicinal Chemistry, 2021).
Where “and” joins values, the source holds several entries; their conditions need not be identical. Equal values may be shown once.

Columns and labels:
Experiment in all cases: NCI one-dose screen
Type in all cases: cell-based, human
NCI-H460 = details: NSCLC NCI-H460, 10 µM single dose
Procedure, shortened: (§1)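 At 10 μM, a single concentration, compounds were evaluated for antiproliferative effect in the NCI 60-line screen, with growth expressed relative to untreated control cells.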

SF-268 = details: CNS SF-268, 10 µM single dose
Procedure, shortened: (§2)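 Following the standard NCI-60 protocol, compounds were applied once at 10 μM to all 60 cancer lines. Read-out is percent growth versus untreated controls, expressed as inhibition %.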

SK-MEL-5 = details: Melanoma SK-MEL-5, 10 µM single dose
Procedure, shortened: as §1

NCI-H522 = details: NSCLC NCI-H522, 10 µM single dose
Procedure, shortened: as §1

M14 = details: Melanoma M14, 10 µM single dose
Procedure, shortened: as §1

IGROV1 = details: Ovarian IGROV1, 10 µM single dose
Procedure, shortened: as §1

OVCAR-5 = details: Ovarian OVCAR-5, 10 µM single dose
Procedure, shortened: as §1

DU-145 = details: Prostate DU-145, 10 µM single dose
Procedure, shortened: as §1

CCRF-CEM = details: Leukemia CCRF-CEM, 10 µM single dose
Procedure, shortened: as §1

RPMI-8226 = details: Leukemia RPMI-8226, 10 µM single dose
Procedure, shortened: as §1

U251 = details: CNS U251, 10 µM single dose
Procedure, shortened: as §1

MDA-MB-468 = details: Breast MDA-MB-468, 10 µM single dose
Procedure, shortened: as §2

SNB-75 = details: CNS SNB-75, 10 µM single dose
Procedure, shortened: as §1

ACHN = details: Renal ACHN, 10 µM single dose
Procedure, shortened: as §1

OVCAR-3 = details: Ovarian OVCAR-3, 10 µM single dose
Procedure, shortened: as §1

CAKI-1 = details: Renal CAKI-1, 10 µM single dose
Procedure, shortened: as §1

COLO 205 = details: Colon COLO 205, 10 µM single dose
Procedure, shortened: as §1

KM12 = details: Colon KM12, 10 µM single dose
Procedure, shortened: as §2

HCT-116 = details: Colon HCT-116, 10 µM single dose
Procedure, shortened: as §1

NCI/ADR-RES = details: Ovarian NCI/ADR-RES, 10 µM single dose
Procedure, shortened: as §1

MDA-MB-231/ATCC = details: Breast MDA-MB-231/ATCC, 10 µM single dose
Procedure, shortened: as §1

NCI-H23 = details: NSCLC NCI-H23, 10 µM single dose
Procedure, shortened: as §2

SK-MEL-2 = details: Melanoma SK-MEL-2, 10 µM single dose
Procedure, shortened: as §1

SK-MEL-28 = details: Melanoma SK-MEL-28, 10 µM single dose
Procedure, shortened: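 One concentration (10 μM) applied to each line of the full NCI-60 panel; percent growth compared against untreated cells.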

SF-539 = details: CNS SF-539, 10 µM single dose
Procedure, shortened: as §2

K-562 = details: Leukemia K-562, 10 µM single dose
Procedure, shortened: as §1

HCC-2998 = details: Colon HCC-2998, 10 µM single dose
Procedure, shortened: as §1

EKVX = details: NSCLC EKVX, 10 µM single dose
Procedure, shortened: as §1

786-0 = details: Renal 786-0, 10 µM single dose
Procedure, shortened: as §1

HCT-15 = details: Colon HCT-15, 10 µM single dose
Procedure, shortened: as §1

HL-60(TB) = details: Leukemia HL-60(TB), 10 µM single dose
Procedure, shortened: as §1

LOX IMVI = details: Melanoma LOX IMVI, 10 µM single dose
Procedure, shortened: as §1

SNB-19 = details: CNS SNB-19, 10 µM single dose
Procedure, shortened: as §1

MCF7 = details: Breast MCF7, 10 µM single dose
Procedure, shortened: as §2

RXF 393 = details: Renal RXF 393, 10 µM single dose
Procedure, shortened: as §1

OVCAR-4 = details: Ovarian OVCAR-4, 10 µM single dose
Procedure, shortened: as §1

BT-549 = details: Breast BT-549, 10 µM single dose
Procedure, shortened: as §1

SMILES | Growth Percent (NCI-H460) | Growth Percent (SF-268) | Growth Percent (SK-MEL-5) | Growth Percent (NCI-H522) | Growth Percent (M14) | Growth Percent (IGROV1) | Growth Percent (OVCAR-5) | Growth Percent (DU-145) | Growth Percent (CCRF-CEM) | Growth Percent (RPMI-8226) | Growth Percent (U251) | Growth Percent (MDA-MB-468) | Growth Percent (SNB-75) | Growth Percent (ACHN) | Growth Percent (OVCAR-3) | Growth Percent (CAKI-1) | Growth Percent (COLO 205) | Growth Percent (KM12) | Growth Percent (HCT-116) | Growth Percent (NCI/ADR-RES) | further results
COc1cccc(NC(=O)Nc2ccc(Nc3ncnc4sc(C(=O)NCCC(=O)NO)c(C)c34)cc2)c1 [Compound 11b, 1–(4-(6-((3-(hydroxyamino)-3-oxopropyl)carbamoyl)-5-methylthieno[2,3-d]pyrimidin-4-ylamino)phenyl)-3–(3-methoxyphenyl)urea] | 101.9% and 101.91% | 94.3% and 94.39% | 95.8% and 95.84% | 94.6% and 94.61% | 92.9% and 92.95% | 104.1% and 104.14% | 101.9% and 101.91% | 102.0% and 102.08% | 105.0% and 105.08% | 110.5% | 97.1% and 97.12% | 83.0% and 83.04% | 83.7% and 83.79% | 106.0% and 106.03% | 108.9% | 95.6% and 95.62% | 113.1% and 113.15% | 99.5% and 99.57% | 101.6% and 101.62% | 102.4% and 102.42% | Growth Percent (MDA-MB-231/ATCC): 100.5% and 100.55%; Growth Percent (NCI-H23): 96.6% and 96.67%; Growth Percent (SK-MEL-2): 116.4% and 116.43%; Growth Percent (SK-MEL-28): 105.3%; Growth Percent (SF-539): 98.0% and 98.07%; Growth Percent (K-562): 115.1% and 115.17%; Growth Percent (HCC-2998): 103.8% and 103.81%; Growth Percent (EKVX): 90.7% and 90.77%; Growth Percent (786-0): 101.3% and 101.34%; Growth Percent (HCT-15): 99.0% and 99.06%; Growth Percent (HL-60(TB)): 103.9% and 103.99%; Growth Percent (LOX IMVI): 91.6% and 91.65%; Growth Percent (SNB-19): 98.1%; Growth Percent (MCF7): 90.5% and 90.58%; Growth Percent (RXF 393): 104.1%; Growth Percent (OVCAR-4): 91.0% and 91.01%; Growth Percent (BT-549): 96.1% and 96.14%
Cc1c(C(=O)NCCC(=O)NO)sc2ncnc(Nc3ccc(NC(=O)Nc4cccc(C(F)(F)F)c4)cc3)c12 [Compound 11c, 1–(4-(6-((3-(hydroxyamino)-3-oxopropyl)carbamoyl)-5-methylthieno[2,3-d]pyrimidin-4-ylamino)phenyl)-3–(3-(trifluoromethyl)phenyl)urea] | 99.4% and 99.41% | 93.3% and 93.37% | 97.1% and 97.12% | 94.3% and 94.36% | 107.0% and 107.01% | 102.2% and 102.29% | 104.4% and 104.48% | 105.3% and 105.34% | 98.8% and 98.82% | 102.2% and 102.26% | 80.2% and 80.22% | 97.1% and 97.16% | 78.8% | 101.7% and 101.74% | 111.6% | 99.3% and 99.31% | 112.9% | 100.1% and 100.15% | 107.9% and 107.91% | 103.1% and 103.18% | Growth Percent (MDA-MB-231/ATCC): 105.2% and 105.25%; Growth Percent (NCI-H23): 100.0% and 100.01%; Growth Percent (SK-MEL-2): 108.7% and 108.73%; Growth Percent (SK-MEL-28): 109.7% and 109.72%; Growth Percent (SF-539): 78.9% and 78.96%; Growth Percent (K-562): 103.6% and 103.67%; Growth Percent (HCC-2998): 111.5% and 111.56%; Growth Percent (EKVX): 90.7% and 90.76%; Growth Percent (786-0): 115.6% and 115.64%; Growth Percent (HCT-15): 101.2% and 101.22%; Growth Percent (HL-60(TB)): 105.0% and 105.04%; Growth Percent (LOX IMVI): 94.5% and 94.53%; Growth Percent (SNB-19): 93.6% and 93.62%; Growth Percent (MCF7): 89.2% and 89.23%; Growth Percent (RXF 393): 103.8% and 103.88%; Growth Percent (OVCAR-4): 105.0% and 105.02%; Growth Percent (BT-549): 137.1% and 137.18%
Cc1c(C(=O)NCCCC(=O)NO)sc2ncnc(Nc3ccc(NC(=O)Nc4ccccc4)cc3)c12 [Compound 12a, 1–(4-(6-((4-(hydroxyamino)-4-oxobutyl)carbamoyl)-5-methylthieno[2,3-d]pyrimidin-4-ylamino)phenyl)-3-phenylurea] | 102.6% and 102.61% | 92.5% and 92.51% | 97.8% and 97.81% | 87.7% and 87.71% | 99.0% and 99.09% | 99.0% and 99.07% | 105.1% and 105.14% | 108.5% and 108.51% | 107.0% and 107.09% | 110.5% and 110.53% | 92.3% and 92.32% | 100.0% and 100.06% | 78.1% and 78.17% | 95.4% and 95.45% | 107.1% and 107.19% | 92.8% and 92.88% | 111.9% and 111.95% | 99.6% and 99.61% | 99.5% | 103.7% and 103.79% | Growth Percent (MDA-MB-231/ATCC): 92.1% and 92.16%; Growth Percent (NCI-H23): 89.2% and 89.25%; Growth Percent (SK-MEL-2): 113.3% and 113.39%; Growth Percent (SK-MEL-28): 109.4% and 109.43%; Growth Percent (SF-539): 96.5% and 96.54%; Growth Percent (K-562): 97.8% and 97.83%; Growth Percent (HCC-2998): 102.1% and 102.15%; Growth Percent (EKVX): 93.22%; Growth Percent (786-0): 102.3% and 102.37%; Growth Percent (HCT-15): 100.2%; Growth Percent (HL-60(TB)): 101.4% and 101.44%; Growth Percent (LOX IMVI): 93.57%; Growth Percent (SNB-19): 97.1% and 97.12%; Growth Percent (MCF7): 92.4% and 92.41%; Growth Percent (RXF 393): 100.1% and 100.13%; Growth Percent (OVCAR-4): 100.6%; Growth Percent (BT-549): 105.0% and 105.06%
